The subject of data set [1] is BNL 1MEA.7R.1 murine hepatocellular carcinoma xenografts. The experiment in a line: Antitumor effects in BNL 1MEA.7R.1 murine hepatocellular carcinoma xenografts in wild-type mice. In kind it is in vivo, Mouse (BALB/cAnNCrlCrlj. The note with it: Day 8. Here is the method:
The BNL 1MEA.7R. 1 murine hepatocellular carcinoma cells were cultured in Dulbecco's minimal essential medium (DMEM) supplemented with 10% heat-inactivated (56° C., 30 minutes) fetal bovine serum (FBS) and 100 U/mL penicillin, 100 μg/mL streptomycin, 1-glutamine (2 mmol/L) in humidified atmosphere of 5% CO2 at 37° C. This tumor cell line was developed from BALB/c mouse. The cells were washed with phosphate buffered saline (PBS), harvested with 0.25% trypsin-EDTA, and suspended with 50% BD Matrigel™ (BD biosciences) in the Hank's balanced salt solution (HBSS) at a density of 1×10^8 cells/mL. A 0.1 mL aliquot of the cell suspension was inoculated subcutaneously into the right flank of each mouse. Fifty days after the inoculation (Day 1), 15 out of 25 athymic mice and 25 out of 33 wild-type mice were selected based on their tumor volumes, shapes of tumors, physical condition, and body weights. Then the selected athymic and wild-type mice were randomly divided into 3 groups (Group 1-3 in the following table “Treatment Groups”) and 5 groups (Group 4-8), respectively. Animals assigned to Group 4, 6, 7, and 8 were used in Ex. 1 and 2. The mean tumor volumes of athymic and wild-type mice assigned to 8 groups were 169.5 and 157.5 mm^3, respectively, on Day 1.
(§1) Lenvatinib mesilate (3 and 10 mg/kg) or vehicle was orally administered at 0.1 mL/10 g body weight, once daily for 7 days (Day 1-7). The tumor volume and body weight of mice were measured on Day 1, 3, 6, and 8.
Tumor volume (mm^3)=length (mm)×width^2 (mm^2)×1/2
(§2) Data are expressed as mean±SD. The differences in relative tumor volume on Day 8 between vehicle- and lenvatinib mesilate-treated groups (3 and 10 mg/kg) in athymic and wild-type mice were analyzed by one-way analysis of variance followed by the Dunnett multiple comparison test, respectively. […]
To compare antitumor activities of lenvatinib mesilate between different strains, differences in % TGI of lenvatinib mesilate between athymic and wild-type mice at each dose were analyzed by the unpaired t test.

Data set [2] concerns tumor-associated macrophage (TAM) population in tumor. The experiment in a line: Immune population analysis in BNL 1MEA.7R.1 xenograft tumor of wild-type mice by flow cytometry. The note with it: oral 10 mg/kg once a day for 7 days, Day 8. Type of data set: in vivo, Mouse (BALB/cAnNCrlCrlj. Here is the method: Half-cut tumor samples collected from BNL 1MEA.7R.1 xenograft model in wild-type mice 1 day after the administration of vehicle or lenvatinib mesilate (10 mg/kg) in Referential Ex. 1 (Group 4, 6, 7, and 8) were minced with a razor on ice. The tumor fragments were digested with collagenase (1900 U/mL) and deoxyribonuclease I (160 KIU/mL) in HBSS for 1 hour at 37° C. with magnetic stirring in flasks. After filtering through cell strainer (pore size 70 μm), harvested cells were washed 3 times with flow cytometry buffer (PBS supplemented with 0.5% bovine serum albumin and 2 mmol/L EDTA). Cells were resuspended with 200 μL of FCM buffer containing 5 μg/mL Mouse BD Fc Block™ (BD biosciences), and incubated at 4° C. for 10 minutes. Antibody cocktail (dilution; 1:2 in FCM buffer) 1 and 2 were prepared as below.
One hundred microliters of cell suspension was mixed with 100 μL of the antibody cocktail 1 or 2 in each well of two 96-well cell culture round bottom plates (Corning Incorporated), and incubated at 4° C. for 30 minutes in a light protected. […] Data were analyzed by FCM analysis software FlowJo 7.6.5 (Tree Star, Inc.).
Data are expressed as mean±SD. The differences in percentage of target cells in CD45^+ cells between vehicle- and lenvatinib mesilate-treated groups were analyzed by the unpaired t test.
On the technique in general: A flow cytometer gives signals particle by particle.

Data set [3] deals with BNL 1MEA.7R.1 murine hepatocellular carcinoma xenografts. Description: Antitumor effects in BNL 1MEA.7R.1 murine hepatocellular carcinoma xenografts in athymic mice. The note with it: oral 3 and 10 mg/kg once daily for 7 days, Day 8. In kind it is in vivo, Mouse (CAnN.Cg-Foxn1nu/CrlCrlj. Here is the method: The BNL 1MEA.7R. 1 murine hepatocellular carcinoma cells were cultured in Dulbecco's minimal essential medium (DMEM) supplemented with 10% heat-inactivated (56° C., 30 minutes) fetal bovine serum (FBS) and 100 U/mL penicillin, 100 μg/mL streptomycin, 1-glutamine (2 mmol/L) in humidified atmosphere of 5% CO2 at 37° C. This tumor cell line was developed from BALB/c mouse. The cells were washed with phosphate buffered saline (PBS), harvested with 0.25% trypsin-EDTA, and suspended with 50% BD Matrigel™ (BD biosciences) in the Hank's balanced salt solution (HBSS) at a density of 1×10^8 cells/mL. A 0.1 mL aliquot of the cell suspension was inoculated subcutaneously into the right flank of each mouse. Fifty days after the inoculation (Day 1), 15 out of 25 athymic mice and 25 out of 33 wild-type mice were selected based on their tumor volumes, shapes of tumors, physical condition, and body weights. […]
Lenvatinib mesilate (3 and 10 mg/kg) or vehicle was orally administered at 0.1 mL/10 g body weight, once daily for 7 days (Day 1-7). The tumor volume and body weight of mice were measured on Day 1, 3, 6, and 8. […]
as §2

A short description of data set [4]: Body weight of mice during the xenograft study. In kind it is in vivo, Mouse. The note with it: athymic and wild-type mice, oral 3 and 10 mg/kg once daily for 7 days, during the study period. Here is the method: as §1
For data set [5], the system named is IFN-γ+ cells in CD8+ T cells of draining lymph nodes. Description: IFN-γ staining analysis of CD8+ T cells derived from draining lymph nodes in BNL 1MEA.7R.1 xenografts in wild-type mice. Type of data set: in vivo, Mouse (BALB/cAnNCrlCrlj. The note with it: oral 10 mg/kg once a day for 7 days, Day 8. On the procedure:
Draining lymph nodes derived from BNL 1MEA.7R. 1 xenograft model in wild-type mice 1 day after once-daily oral administration of vehicle or lenvatinib mesilate (10 mg/kg) for 7 days in Referential Ex. 1 were isolated and mashed by a 5-mL syringe. The cell number in suspension was calculated and adjusted to 2.0×10^6 cells/mL with RPMI1640 containing 10% FBS, 100 U/mL penicillin, and 100 μg/mL streptomycin. One hundred microliters per well of the resultant cell suspension were plated in a 96-well cell culture cluster round bottom plate (Corning Incorporated) and cultured with BD Goldi-Stop™ (final concentration [conc.] 4 μL/6 mL) for 5 hours in 5% CO2 at 37° C. […] After washing with 200 μL of BD Perm/Wash buffer 2 times, the resultant cells were resuspended with 200 μL of BD Perm/Wash buffer, and analyzed to detect percentage of IFN-γ-positive cells in CD3- and CD8-positive cells by FACSAriaII SORP cell sorter (Becton, Dickinson and company) with BD FACSDiva 6.1.3 software (Becton, Dickinson and company). […]
Data are expressed as mean±SD. The differences in percentage of IFN-γ-positive cells in CD8^+ T cells between vehicle- and lenvatinib mesilate-treated groups were analyzed by the unpaired t test

Entries after “also recorded” stand apart in the source; their conditions may differ.

For `COc1cc2nccc(Oc3ccc(NC(=O)NC4CC4)c(Cl)c3)c2cc1C(N)=O` [lenvatinib mesilate, 4-(3-chloro-4-(cyclopropylaminocarbonyl)aminophenoxy)-7-methoxy-6-quinolinecarboxamide], in data set [1] (oral 3 and 10 mg/kg once daily for 7 days), the “% TGI in wild-type mice compared to athymic mice at each dose” value is listed as “significantly larger”. In addition, the “tumor shrinkage in individual animals” value in data set [1] (wild-type mice, both treatment groups (3 and 10 mg/kg)) is listed as “tumors from all animals shrank”. In addition, the “tumor volume compared to vehicle” value in data set [1] (wild-type mice, oral 3 and 10 mg/kg once daily for 7 days) is “significant reduction in tumor volume”. Also, in data set [2], the “percentage of TAM population (CD45+CD11b+Ly6G-F4/80+Ly6Clow) in total CD45+ cells compared to vehicle” value is recorded as “significant reduction” and the “percentage of immature TAM (CD45+CD11b+Ly6G-F4/80-Ly6Chigh) in total CD45+ cells compared to vehicle” value is listed as “increased”. The “tumor volume compared to vehicle” value in data set [3] is listed as “no significant difference; also recorded: only tumor growth delay”. The body weight loss result in data set [4] was “Any severe body weight loss was not observed”. Besides, the “percentage of IFN-γ+ cells in CD8+ T cells in dLN compared to vehicle” value in data set [5] is recorded as “significantly increased”.

(Values after patent US20160089365A1, “IMMUNOSTIMULATORY COMPOUND” (Eisai R&D Management Co., Ltd., priority 2014, published 2016).)
